Here are results for 9 compounds from ChEMBL document CHEMBL1133854, “Discovery and evaluation of piperidinyl carboxylic acid derivatives as potent alpha(4)beta(1) integrin antagonists” (Bioorg Med Chem Lett, 2001).

Each structure is given as a SMILES string.

Series [1] has as its target T1, Integrin alpha-4/beta-1 (Homo sapiens, UniProt P05556+P13612). The series can be described thus: Inhibition of VCAM-1 binding to integrin alpha4-beta1 in Jurkat cells at 10 uM. The series is classed as cell-based.
Series [2] has as its target T1, Integrin alpha-4/beta-1. Description: Inhibition of VCAM-1 binding to integrin alpha4-beta1 of Jurkat cells. The series is classed as cell-based.
Series [3] can be described thus: Partition coefficient (logP). The series is classed as physicochemical. Conditions: octanol/water.
In series [4] the target is Integrin alpha-V/beta-3 (Homo sapiens, UniProt P05106+P06756). Description: Inhibition of VCAM-1 binding to integrin alphaV-beta3 in Jurkat cells. The series is classed as cell-based.
Sequence of Integrin alpha-V/beta-3 (P05106 27-788 limits assumed): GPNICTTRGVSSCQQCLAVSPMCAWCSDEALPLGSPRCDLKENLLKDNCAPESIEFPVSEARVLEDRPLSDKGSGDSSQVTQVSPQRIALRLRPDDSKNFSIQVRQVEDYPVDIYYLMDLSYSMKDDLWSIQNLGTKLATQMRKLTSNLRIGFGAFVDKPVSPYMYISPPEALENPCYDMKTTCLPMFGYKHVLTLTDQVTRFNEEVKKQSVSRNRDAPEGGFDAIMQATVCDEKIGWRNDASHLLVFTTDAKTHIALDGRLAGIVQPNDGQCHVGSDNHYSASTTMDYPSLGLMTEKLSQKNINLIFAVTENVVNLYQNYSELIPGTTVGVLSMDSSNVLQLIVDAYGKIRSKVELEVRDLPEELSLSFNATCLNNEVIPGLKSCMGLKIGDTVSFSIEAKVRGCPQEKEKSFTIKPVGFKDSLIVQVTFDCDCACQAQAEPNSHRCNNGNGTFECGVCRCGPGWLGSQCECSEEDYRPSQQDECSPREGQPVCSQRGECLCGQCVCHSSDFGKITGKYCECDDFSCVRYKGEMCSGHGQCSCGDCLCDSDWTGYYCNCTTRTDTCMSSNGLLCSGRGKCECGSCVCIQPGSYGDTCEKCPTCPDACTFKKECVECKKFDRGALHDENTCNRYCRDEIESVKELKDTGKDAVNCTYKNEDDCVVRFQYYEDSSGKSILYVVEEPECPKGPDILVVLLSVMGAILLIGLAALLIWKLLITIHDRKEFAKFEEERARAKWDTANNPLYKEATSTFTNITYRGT
Sequence of Integrin alpha-V/beta-3 (P06756 31-889 limits assumed): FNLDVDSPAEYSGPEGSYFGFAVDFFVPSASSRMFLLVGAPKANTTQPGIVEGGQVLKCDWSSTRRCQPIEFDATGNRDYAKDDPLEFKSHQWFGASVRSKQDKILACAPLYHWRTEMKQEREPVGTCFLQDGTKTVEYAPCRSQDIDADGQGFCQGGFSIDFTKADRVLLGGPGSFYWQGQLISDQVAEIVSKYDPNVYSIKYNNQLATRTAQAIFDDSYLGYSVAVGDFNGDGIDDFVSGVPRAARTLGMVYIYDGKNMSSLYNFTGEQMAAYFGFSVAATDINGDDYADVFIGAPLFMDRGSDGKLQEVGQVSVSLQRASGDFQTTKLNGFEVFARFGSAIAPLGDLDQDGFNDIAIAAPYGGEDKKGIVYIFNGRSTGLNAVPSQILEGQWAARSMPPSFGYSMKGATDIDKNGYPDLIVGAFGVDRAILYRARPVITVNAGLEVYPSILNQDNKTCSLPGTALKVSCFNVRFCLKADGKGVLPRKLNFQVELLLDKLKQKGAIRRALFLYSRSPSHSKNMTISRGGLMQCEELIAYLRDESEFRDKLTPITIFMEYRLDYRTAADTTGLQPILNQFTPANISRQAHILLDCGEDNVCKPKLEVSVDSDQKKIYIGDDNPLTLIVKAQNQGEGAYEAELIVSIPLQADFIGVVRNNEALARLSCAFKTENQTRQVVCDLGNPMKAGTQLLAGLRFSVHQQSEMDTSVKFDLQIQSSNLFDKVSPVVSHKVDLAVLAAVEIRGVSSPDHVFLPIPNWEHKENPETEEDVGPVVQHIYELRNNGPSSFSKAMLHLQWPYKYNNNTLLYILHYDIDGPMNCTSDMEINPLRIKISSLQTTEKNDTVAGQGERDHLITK
Sequence of Integrin alpha-V/beta-3 (P06756 891-1048 limits assumed): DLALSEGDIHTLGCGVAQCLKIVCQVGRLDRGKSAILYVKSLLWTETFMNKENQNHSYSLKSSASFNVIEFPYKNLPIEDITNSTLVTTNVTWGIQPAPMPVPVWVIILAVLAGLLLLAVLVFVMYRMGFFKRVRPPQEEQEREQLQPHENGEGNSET
A short description of series [5]: Inhibition of VCAM-1 binding to integrin alpha9/beta1 in Jurkat cells. The series is classed as cell-based, Homo sapiens.
Series [6] is described as follows: Half life (t1/2) determined at a dose 10 mg/kg administered intraperitoneally to mice. The series is classed as ADME, organism-based. Also on record: dose 10 mg/kg, route intraperitoneal. To be noted: mouse, in vivo, ip.
The nature of series [7]: Area under curve (AUC) determined at a dose 10 mg/kg administered intraperitoneally to mice. The series is classed as ADME, organism-based. Also on record: dose 10 mg/kg, route intraperitoneal. To be noted: mouse, in vivo, ip.
Series [8] can be described thus: Maximal concentration determined at a dose 10 mg/kg administered intraperitoneally to mice. It counts as ADME, organism-based. Also on record: dose 10 mg/kg, route intraperitoneal. To be noted: mouse, in vivo, ip.

T1 sequence (P05556 whole entry): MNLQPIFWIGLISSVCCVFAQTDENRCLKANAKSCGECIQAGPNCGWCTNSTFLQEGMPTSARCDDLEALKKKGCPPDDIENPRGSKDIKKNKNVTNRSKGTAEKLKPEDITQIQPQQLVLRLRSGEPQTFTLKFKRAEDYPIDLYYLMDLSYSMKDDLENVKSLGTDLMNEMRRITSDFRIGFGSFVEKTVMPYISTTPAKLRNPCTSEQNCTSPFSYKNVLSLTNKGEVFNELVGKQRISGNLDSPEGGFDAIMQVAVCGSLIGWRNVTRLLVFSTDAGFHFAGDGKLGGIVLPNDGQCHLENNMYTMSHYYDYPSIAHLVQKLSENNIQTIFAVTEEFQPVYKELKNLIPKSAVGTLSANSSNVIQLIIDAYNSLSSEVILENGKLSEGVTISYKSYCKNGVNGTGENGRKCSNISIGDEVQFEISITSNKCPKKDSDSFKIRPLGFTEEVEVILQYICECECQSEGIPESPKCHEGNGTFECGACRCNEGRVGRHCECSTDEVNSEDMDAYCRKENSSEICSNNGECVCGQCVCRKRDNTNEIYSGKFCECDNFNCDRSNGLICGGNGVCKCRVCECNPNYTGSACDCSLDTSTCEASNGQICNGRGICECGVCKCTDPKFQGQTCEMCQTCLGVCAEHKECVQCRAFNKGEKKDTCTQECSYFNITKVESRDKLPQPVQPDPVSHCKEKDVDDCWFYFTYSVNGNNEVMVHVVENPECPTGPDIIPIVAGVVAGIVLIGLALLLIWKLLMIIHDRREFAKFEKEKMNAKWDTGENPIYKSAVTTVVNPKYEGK
T1 sequence (P13612 whole entry): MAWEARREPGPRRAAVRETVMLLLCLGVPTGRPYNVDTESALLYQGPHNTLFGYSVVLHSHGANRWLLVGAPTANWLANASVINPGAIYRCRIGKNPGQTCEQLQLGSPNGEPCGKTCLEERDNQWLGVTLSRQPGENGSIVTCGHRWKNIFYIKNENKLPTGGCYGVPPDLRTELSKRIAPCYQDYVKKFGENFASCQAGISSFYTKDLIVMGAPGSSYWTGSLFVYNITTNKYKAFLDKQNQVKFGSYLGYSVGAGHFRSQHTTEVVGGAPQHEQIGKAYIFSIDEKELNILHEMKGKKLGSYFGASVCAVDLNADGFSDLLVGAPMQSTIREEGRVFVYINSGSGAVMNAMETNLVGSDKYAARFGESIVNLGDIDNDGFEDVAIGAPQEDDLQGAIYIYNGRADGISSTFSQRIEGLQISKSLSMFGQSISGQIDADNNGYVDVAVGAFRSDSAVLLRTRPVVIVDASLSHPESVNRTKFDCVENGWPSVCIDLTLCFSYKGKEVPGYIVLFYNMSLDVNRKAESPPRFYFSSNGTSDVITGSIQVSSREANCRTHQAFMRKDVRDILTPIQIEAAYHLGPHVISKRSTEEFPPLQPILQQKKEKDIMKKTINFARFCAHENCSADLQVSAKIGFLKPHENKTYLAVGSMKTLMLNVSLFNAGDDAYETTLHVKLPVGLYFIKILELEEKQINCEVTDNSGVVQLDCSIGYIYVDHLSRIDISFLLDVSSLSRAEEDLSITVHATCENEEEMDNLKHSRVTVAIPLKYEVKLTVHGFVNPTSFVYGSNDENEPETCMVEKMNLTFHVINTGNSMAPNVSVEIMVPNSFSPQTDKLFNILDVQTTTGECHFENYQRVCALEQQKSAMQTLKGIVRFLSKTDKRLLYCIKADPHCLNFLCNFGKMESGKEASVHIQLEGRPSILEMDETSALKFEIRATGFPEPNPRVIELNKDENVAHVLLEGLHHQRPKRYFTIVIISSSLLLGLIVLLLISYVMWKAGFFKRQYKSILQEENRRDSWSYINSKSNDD

For the compound `Cc1ccccc1NC(=O)Nc1ccc(CC(=O)N[C@@H](CC(C)C)C(=O)N2CCCC(C(=O)O)C2)cc1` (stereo partly drawn), the inhibition (usually the drop in the measured response relative to a control, in per cent) in series [1] came out at 25%. In series [2], the IC50 – broadly, the point on the concentration scale where inhibition reaches its midpoint – is greater than 10 µM.
For the compound `Cc1ccccc1NC(=O)Nc1ccc(CC(=O)N[C@@H](CC(C)C)C(=O)N2CCCCC2C(=O)O)cc1` (stereo partly drawn), the inhibition in series [1] worked out at 49%. Besides, in series [2], the IC50 turned out to be 10 µM.
For the compound `Cc1ccccc1NC(=O)Nc1ccc(CC(=O)N[C@@H](CC(C)C)C(=O)N[C@H](C)CC(=O)O)cc1`, the log partition coefficient (logP) (commonly a log measure of how a compound divides between an organic and an aqueous phase) in series [3] was 1.72.
In turn, `Cc1ccccc1NC(=O)Nc1ccc(CC(=O)N[C@@H](CC(C)C)C(=O)N2CCCC(CC(=O)O)C2)cc1` (stereo partly drawn) displayed an inhibition in series [1] of 55%. Also, in series [2], the IC50 amounted to 7.2 µM.
As to `Cc1ccccc1NC(=O)Nc1ccc(CC(=O)N[C@@H](CC(C)C)C(=O)N2CCC(C(=O)O)CC2)cc1`, the inhibition in series [1] was 96%. This compound also came in with an IC50 in series [2] of 4.7 µM.
On to `Cc1ccccc1NC(=O)Nc1ccc(CC(=O)N[C@@H](CC(C)C)C(=O)N2CCCC(CCC(=O)O)C2)cc1` (stereo partly drawn), for which, in series [1], the inhibition stood at 77%. In addition, the IC50 in series [2] is 6.74 µM.
The matching figures for `Cc1ccccc1NC(=O)Nc1ccc(CC(=O)N[C@@H](CC(C)C)C(=O)N2CCC(CC(=O)O)CC2)cc1`: 98% and 0.55 µM.
Take `Cc1ccccc1NC(=O)Nc1ccc(CC(=O)N[C@@H](CC(C)C)C(=O)N2CCCCC2C(C(=O)O)c2ccccc2)cc1` (stereo partly drawn): in series [1], the inhibition amounted to 99%. Besides, the IC50 in series [2] is 4.96 µM.
Consider `Cc1ccccc1NC(=O)Nc1ccc(CC(=O)N[C@@H](CC(C)C)C(=O)N2CCCCC2CC(=O)O)cc1` (stereo partly drawn), for which the inhibition in series [1] was found to be 100%. In addition, the IC50 in series [4] is greater than 200 µM; in series [5], greater than 50 µM; in series [2], 0.3 µM. Also, the half-life (in general, the time in which the quantity being followed falls by half) in series [6] was 48 min. In series [7], the exposure (AUC) – broadly, concentration integrated over time – stood at 955 ng·h/mL. Also, in series [8], the Cmax (in general, the highest concentration seen after dosing) is 1440 ng/mL. In addition, in series [3], the lipophilicity (logP) stood at 1.89.
